What follows are compounds tested against T1, BTK (Mus musculus, UniProt P35991) (assay: In vivo degradation of BTK in mouse PD experiments with oral dosing). Conditions: oral dose 1 mg/kg, 6 h, splenocytes, HTRF.
T1 construct: from tissue; host or cells: mouse blood B cells / splenocytes (CD-1 or BALB/c)
Protocol: A method of determining the pharmacodynamic profile of BTK degraders was performed by dosing either CD-1 or BALB/c mice with CTM. The CTM was prepared in a suitable formulation and was administered via oral gavage (PO) at a suitable dose level and frequency as informed by prior pharmacokinetic and tolerability studies. Following administration of CTM, BTK levels in blood or splenocytes are measured using flow cytometry or HTRF. For assessment of BTK levels via flow cytometry, either whole blood or splenocytes were first treated with ACK RBC lysis buffer to facilitate lysing of red blood cells. Remaining cells were then stained with fluorophore-conjugated antibodies against CD45, TCR beta and CD45R (B220). Cell pellets were washed with 1×PBS, fixed, and permeabilized for twenty-four hours with Foxp3/Transcription Factor Fixation/Permeabilization Kit. Cells were then stained intracellularly with unconjugated BTK antibody and detected with a fluorophore-conjugated secondary antibody. Stained cells were run on an Attune N×T Acoustic Focusing Flow Cytometer (Thermo-Fisher A29004), and data was analyzed using FlowJo (v10.5.3) and GraphPad Prism (v7.00) software. Lymphocytes were gated for B cells defined as CD45+ TCR beta−B220+ and T cells as CD45+ TCR beta+B220−. The BTK geometric mean fluorescence intensity (MFI) was calculated for B and T cells. Percent BTK degradation for each compound-treated sample was calculated using the equation described below: % Degradation=100*(Treated sample B cell BTK MFI-treated sample T cell BTK MFI)/Vehicle B cell BTK MFI-Vehicle T cell BTK MFI)
This example evaluates in vivo activity of BTK CTMs via a direct mouse PD measurement following oral dosing
Screens were completed at 90 mg/kg for six hours, and then changed to lower doses/longer time points after seeing strong BTK degradation activity with an initial set of compounds. This assay was useful in selecting compounds for in vivo efficacy experiments.

T1 sequence (P35991 whole entry): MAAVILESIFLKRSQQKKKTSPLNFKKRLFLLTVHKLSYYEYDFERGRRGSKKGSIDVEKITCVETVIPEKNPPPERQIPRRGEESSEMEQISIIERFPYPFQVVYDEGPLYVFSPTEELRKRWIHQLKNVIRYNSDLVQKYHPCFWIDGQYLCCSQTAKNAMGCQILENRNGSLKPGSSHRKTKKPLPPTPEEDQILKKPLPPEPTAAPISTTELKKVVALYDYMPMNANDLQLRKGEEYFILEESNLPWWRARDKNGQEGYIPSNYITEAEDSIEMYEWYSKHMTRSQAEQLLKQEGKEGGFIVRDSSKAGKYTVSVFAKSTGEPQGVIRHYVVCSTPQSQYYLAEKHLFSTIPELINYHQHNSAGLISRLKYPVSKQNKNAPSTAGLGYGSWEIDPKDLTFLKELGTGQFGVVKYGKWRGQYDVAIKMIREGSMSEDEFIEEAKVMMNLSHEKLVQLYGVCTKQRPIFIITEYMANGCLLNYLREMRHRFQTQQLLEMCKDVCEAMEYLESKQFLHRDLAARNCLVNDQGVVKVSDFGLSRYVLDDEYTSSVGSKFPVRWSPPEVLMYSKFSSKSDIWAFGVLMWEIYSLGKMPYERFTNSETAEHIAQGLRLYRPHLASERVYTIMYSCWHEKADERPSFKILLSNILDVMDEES

% BTK Remaining [%]	SMILES
82	CN1CCN([C@@H]2CCCN(c3cnc(C(N)=O)c(Nc4ccc(N5CCN(CCC6CCN(c7ccc8c(c7)C(=O)N(C7CCC(=O)NC7=O)C8=O)CC6)CC5)cc4)n3)C2)C1=O (some centres unmarked) [Compound 40]
85	CN1CCN([C@@H]2CCCN(c3cnc(C(N)=O)c(Nc4ccc(N5CCC6CCN(c7cccc8c7C(=O)N(C7CCC(=O)NC7=O)C8=O)CC6C5)cc4)n3)C2)C1=O (some centres unmarked) [Compound 105]
97	CS(=O)(=O)c1ccc(Nc2nc(N3CCC[C@@H](NC(=O)OCC4CCN(c5ccc6c(c5)C(=O)N([C@H]5CCC(=O)NC5=O)C6=O)CC4)C3)cnc2C(N)=O)cc1 [Compound 218]
79	CN1CCN([C@@H]2CCCN(c3cnc(C(N)=O)c(Nc4ccc(C5CCN(C[C@@H]6[C@H]7CN(c8ccc9c(c8)C(=O)N(C8CCC(=O)NC8=O)C9=O)C[C@@H]67)CC5)cc4)n3)C2)C1=O (some centres unmarked) [Compound 39]
102	CN1CCN([C@H]2CCCN(c3cnc(C(N)=O)c(Nc4ccc(N5CC6CN(c7ccc8c(c7)C(=O)N(C7CCC(=O)NC7=O)C8=O)CC6C5)cc4)n3)C2)C1=O (some centres unmarked) [Compound 79]
74	CN1CCN([C@@H]2CCCN(c3cnc(C(N)=O)c(Nc4ccc(C5CN(C[C@H]6CCN(c7ccc8c(c7)C(=O)N(C7CCC(=O)NC7=O)C8=O)C6)C5)cc4)n3)C2)C1=O (some centres unmarked) [Compound 35]
93	CN1CCN([C@@H]2CCCN(c3cnc(C(N)=O)c(Nc4ccc(C5CCN(C[C@@H]6CCCN(c7ccc8c(c7)C(=O)N(C7CCC(=O)NC7=O)C8=O)C6)CC5)cc4)n3)C2)C1=O (stereo partly drawn) [Compound 32, 3-((4-(1-(((3S)-1-(2-(2,6-dioxopiperidin-3-yl)-1,3-dioxoisoindolin-5-yl)piperidin-3-yl)methyl)piperidin-4-yl)phenyl)amino)-5-((R)-3-(3-methyl-2-oxoimidazolidin-1-yl)piperidin-1-yl)pyrazine-2-carboxamide]
116	CN1CCN([C@H]2CCCN(c3cnc(C(N)=O)c(Nc4ccc(N5CCC6(CCCN(Cc7ccc8c(c7)C(=O)N(C7CCC(=O)NC7=O)C8=O)C6)CC5)cc4)n3)C2)C1=O (some centres unmarked) [Compound 108]

Same assay, conditions: oral dose 3 mg/kg, 6 h, blood, flow cytometry

% BTK Remaining [%]	SMILES
97	Cn1cc(Nc2nc(N3CCC[C@@H](N4CC5(CN(CC6CN(c7ccc8c(c7)C(=O)N(C7CCC(=O)NC7=O)C8=O)C6)C5)OC4=O)C3)cnc2C(N)=O)cn1 (stereo partly drawn) [compound 213, 5-((3R)-3-(2-((1-(2-(2,6-dioxopiperidin-3-yl)-1,3-dioxoisoindolin-5-yl)azetidin-3-yl)methyl)-6-oxo-5-oxa-2,7-diazaspiro[3.4]octan-7-yl)piperidin-1-yl)-3-((1-methyl-1H-pyrazol-4-yl)amino)pyrazine-2-carboxamide]
100	CN1CCN([C@@H]2CCCN(c3cnc(C(N)=O)c(Nc4cc5n(n4)CCN(C[C@H]4CCN(c6ccc7c(c6)C(=O)N(C6CCC(=O)NC6=O)C7=O)C4)C5)c3)C2)C1=O (some centres unmarked) [Compound 214]

Same assay, conditions: oral dose 30 mg/kg, 24 h, blood, flow cytometry

% BTK Remaining [%]	SMILES
37	NC(=O)c1ncc(N2CCCC(N3CCCC3=O)C2)nc1Nc1ccc(C2CCN(C[C@@H]3CCN(c4ccc5c(c4)C(=O)N(C4CCC(=O)NC4=O)C5=O)C3)CC2)cc1 (some centres unmarked) [Compound 146]
20	CN1CCN([C@@H]2CCCN(c3cnc(C(N)=O)c(Nc4ccc(C5CCN(C[C@@H]6CCN(c7ccc8c(c7)n(C)c(=O)n8[C@@H]7CCC(=O)NC7=O)C6)CC5)cc4)n3)C2)C1=O [Compound 199]
29	NC(=O)c1ncc(N2CCC[C@H](N3CCCC3=O)C2)nc1Nc1ccc(C2CCN(CC3CCN(c4ccc5c(=O)n(C6CCC(=O)NC6=O)ccc5c4)CC3)CC2)cc1 (some centres unmarked) [Compound 144]
39	CN1CCN([C@@H]2CCCN(c3cnc(C(N)=O)c(Nc4ccc(C5CCN(CC6CN(c7ccc8c(=O)n(C9CCC(=O)NC9=O)ccc8c7)C6)CC5)cc4)n3)C2)C1=O (some centres unmarked) [Compound 116]
33	NC(=O)c1ncc(N2CCC[C@@H](N3CCOC3=O)C2)nc1Nc1ccc(C2CCN(CC3CCN(c4ccc5c(=O)n(C6CCC(=O)NC6=O)ccc5c4)CC3)CC2)cc1 (some centres unmarked) [Compound 153]
100	Cn1cc(Nc2nc(N3CCC[C@@H](N4CCC5(CN(CC6CCN(c7ccc8c(=O)n(C9CCC(=O)NC9=O)ccc8c7)CC6)C5)C4=O)C3)cnc2C(N)=O)cn1 (some centres unmarked) [Compound 145]
95	O=C1CC[C@H](N2C(=O)c3ccc(N4CC[C@H](CN5CCC(c6ccc(Nc7nc(-c8nccs8)cn8ccnc78)cc6)CC5)C4)cc3C2=O)C(=O)N1 [Compound 203]
49	CN1CCN([C@@H]2CCCN(c3cnc(C(N)=O)c(Nc4ccc(C5CCN(C[C@H]6CCN(c7ccc8c(c7)CN(C7CCC(=O)NC7=O)C8=O)C6)CC5)cc4)n3)C2)C1=O (some centres unmarked) [Compound 117]
43	CN1CCN([C@H]2CCCN(c3cnc(C(N)=O)c(Nc4ccc(C5CCN(C[C@@H]6CCN(c7ccc(-c8nn(C9CCC(=O)NC9=O)c(=O)n8C)cc7)C6)CC5)cc4)n3)C2)C1=O (some centres unmarked) [Compound 142]
33	Cn1c(=O)n([C@@H]2CCC(=O)NC2=O)c2ccc(N3CC[C@H](CN4CCC(c5ccc(Nc6nc(N7CCCCC7)cnc6C(N)=O)cc5)CC4)C3)cc21 [Compound 196]
25	CN1CCN([C@@H]2CCCN(c3cnc(C(N)=O)c(Nc4ccc(C5CCN(C[C@H]6CCN(c7ccc8c(c7)n(C)c(=O)n8[C@@H]7CCC(=O)NC7=O)C6)CC5)cc4)n3)C2)C1=O [Compound 198]
37	Cn1c(-c2ccc(N3CCC(CN4CCC(c5ccc(Nc6nc(N7CCC[C@H](N8CCCC8=O)C7)cnc6C(N)=O)cc5)CC4)CC3)cc2)nn(C2CCC(=O)NC2=O)c1=O (some centres unmarked) [Compound 143]
79	CN1CCN([C@@H]2CCCN(c3cnc(C(N)=O)c(Nc4ccc(C5CCN(C[C@H]6C[C@H](Nc7cccc8c7C(=O)N([C@@H]7CCC(=O)NC7=O)C8=O)C6)CC5)cc4)n3)C2)C1=O [Compound 202]

Same assay, conditions: oral dose 30 mg/kg, 24 h, splenocytes, HTRF

% BTK Remaining [%]	SMILES
29	CN1CCN([C@@H]2CCCN(c3cnc(C(N)=O)c(Nc4ccc(C5CCN(CC6CCN(c7ccc(OC8CCC(=O)NC8=O)cn7)CC6)CC5)cc4)n3)C2)C1=O (some centres unmarked) [Compound 165]
48	NC(=O)c1ncc(N2CCC3(COC3)C2)nc1Nc1ccc(C2CCN(C[C@H]3CCN(c4ccc5c(c4)C(=O)N(C4CCC(=O)NC4=O)C5=O)C3)CC2)cc1 (some centres unmarked) [Compound 176]
66	Cc1cc(Nc2nc(N3CCC[C@@H](N4CCC5(CCN(CC6CCN(c7ccc8c(c7)C(=O)N(C7CCC(=O)NC7=O)C8=O)CC6)CC5)C4=O)C3)cnc2C(N)=O)sn1 (stereo partly drawn) [compound 205, 5-[(3R)-3-[8-({1-[2-(2,6-dioxopiperidin-3-yl)-1,3-dioxoisoindol-5-yl]piperidin-4-yl}methyl)-1-oxo-2,8-diazaspiro[4.5]decan-2-yl]piperidin-1-yl]-3-[(3-methyl-1,2-thiazol-5-yl)amino]pyrazine-2-carboxamide]
87	CN1CCN([C@@H]2CCCN(c3cnc(C(N)=O)c(Nc4cnc(N5CCN(C[C@H]6CCN(c7ccc8c(c7)C(=O)N([C@@H]7CCC(=O)NC7=O)C8=O)C6)CC5)nc4)n3)C2)C1=O [Compound 204]
85	CN1CCN([C@@H]2CCCN(c3cnc(C(N)=O)c(Nc4ccc(C5CN(CC6CCN(c7cnn(C8CCC(=O)NC8=O)c(=O)c7)CC6)C5)cc4)n3)C2)C1=O (some centres unmarked) [Compound 118]
59	CN1CCN([C@@H]2CCCN(c3cnc(C(N)=O)c(Nc4ccc(C5CCN(CC6CCN(c7cnn(C8CCC(=O)NC8=O)c(=O)c7)CC6)CC5)cc4)n3)C2)C1=O (some centres unmarked) [Compound 120]
77	CN1CCN([C@@H]2CCCN(c3cnc(C(N)=O)c(Nc4ccc(C5CN(CC6CCN(c7ccc(-c8nn(C9CCC(=O)NC9=O)c(=O)n8C)cc7)CC6)C5)cc4)n3)C2)C1=O (some centres unmarked) [Compound 119]

Same assay, conditions: oral dose 90 mg/kg, 6 h, splenocytes, HTRF

% BTK Remaining [%]	SMILES
14	CN1CCN([C@@H]2CCCN(c3cnc(C(N)=O)c(Nc4ccc(N5CCN(C[C@@H]6CCCN(c7ccc8c(c7)C(=O)N(C7CCC(=O)NC7=O)C8=O)C6)CC5)cc4)n3)C2)C1=O (some centres unmarked) [Compound 46]
9	CN1CCN([C@@H]2CCCN(c3cnc(C(N)=O)c(Nc4ccc(C5CCN(C[C@H]6CCCN(c7ccc8c(c7)C(=O)N(C7CCC(=O)NC7=O)C8=O)C6)CC5)cc4)n3)C2)C1=O (some centres unmarked) [Compound 50]
4	CN1CCN([C@@H]2CCCN(c3cnc(C(N)=O)c(Nc4ccc(N5CCN(CCC6CN(c7ccc8c(c7)C(=O)N(C7CCC(=O)NC7=O)C8=O)C6)CC5)cc4)n3)C2)C1=O (some centres unmarked) [Compound 43]
89	CN1CCN([C@@H]2CCCN(c3cnc(C(N)=O)c(Nc4ccc(C5(C)CCN(c6ccc7c(c6)C(=O)N(C6CCC(=O)NC6=O)C7=O)CC5)cc4)n3)C2)C1=O (some centres unmarked) [Compound 58]
15	CN1CCN([C@@H]2CCCN(c3cnc(C(N)=O)c(Nc4ccc(C5CCN(CCC6CCN(c7ccc8c(c7)C(=O)N(C7CCC(=O)NC7=O)C8=O)CC6)CC5)cc4)n3)C2)C1=O (some centres unmarked) [Compound 41]

Reference: patent publication US12600732B2, “Bifunctional compounds for degrading BTK via ubiquitin proteosome pathway” (NURIX THERAPEUTICS, INC., priority 2019, dated 2026)
